According to PubChem BioAssay AID1259411 (Chemical Carcinogenesis Research Information System (CCRIS), 2018):
Calls of active or inactive are those of the source. The rule behind the calls is not given here. *1 amine or outer side, *2 acyl side, *3 side chain or, on linkers, in order; H or OH if unused. Where a SMILES comes first, the peptide text is derived from it. Bridges are numbered along the chain shown (N, C = ends). Roman numbers before positions name the chains, in order. [ ]: non-standard residue; d: D form. Actinocin(9to1) = Cc1c2oc3c(C)ccc(C(=O)[*:1])c3nc-2c(C(=O)[*:2])c(N)c1=O; NMeV = CN[C@H](C(=O)O)C(C)C; Sar = CNCC(=O)O

Tested on: rodent carcinogenicity bioassays, tumor incidence
Assay: CCRIS carcinogenicity studies
Method in brief: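 NCI-built, expert-reviewed records of carcinogenicity and related test outcomes (mutagenicity, tumor promotion/inhibition) compiled from published and report sources, historical span 1985-2011, not updated.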

**Q.** For `CCOC(=O)C(C)(C)Oc1ccc(Cl)cc1`, which carcinogen call (Species: MOUSE, Strain/Sex: CD-1/MALE,FEMALE (NEONATAL) (24-28/GROUP), Route: ORAL (GAVAGE), Dose: 0, 100, 350, 500 MG/KG BW ON D 9 AND 16 OF LIFE (STUDY DURATION: 1 YR)) is on record?
**A.** inactive; negative

**Q.** And the carcinogen call (Species: Mouse, Strain/Sex: Nontransgenic rasH2/Female (15/group), Route: Oral, Dose: 0, 250 mg/kg/day (Test material solvent: 0.5% (w/w) hydroxymethylcellulose in water), daily, by gavage for 27 wk, study, Dose: 0, 250 mg/kg/day (Test material solvent: 0.5% (w/w) hydroxymethylcellulose in water), daily, by gavage for 27 wk, study)?
**A.** inactive; negative (slight increase in incidence of various neoplasms (harderian gland, lu

**Q.** What about the carcinogen call (Species: Mouse, Strain/Sex: Nontransgenic rasH2/Male (15/group), Route: Oral, Dose: 0, 200 mg/kg/day (Test material solvent: 0.5% (w/w) hydroxymethylcellulose in water), daily, by gavage for 27 wk, study, Dose: 0, 200 mg/kg/day (Test material solvent: 0.5% (w/w) hydroxymethylcellulose in water), daily, by gavage for 27 wk, study, Tumor Site: Type of Lesion: Liver) of the same molecule?
**A.** inactive; negative (hepatocellular neoplasms observed in matched study of male transgenic

**Q.** And the carcinogen call (Species: RAT, Strain/Sex: F344/MALE, Route: ORAL, Dose: 0.5% IN DIET FOR UP TO 28 MO, Tumor Site: Type of Lesion: LIVER: HEPATOCELLULAR CARCINOMA)?
**A.** active; positive

**Q.** What about the carcinogen call (Species: RAT, Strain/Sex: SPRAGUE-DAWLEY/MALE,FEMALE, Route: ORAL, Dose: 1500, 4500, 9000 PPM IN DIET, Dose: 1500, 4500, 9000 PPM IN DIET, Tumor Site: Type of Lesion: LIVER) of the same molecule?
**A.** active; positive

**Q.** `O=S1(=O)CC=CC1` was tested. Which carcinogen call (Species: MOUSE, Strain/Sex: B6C3F1/FEMALE, Route: GAVAGE, Dose: 0, 384, 768 MG/KG, Dose: 0, 384, 768 MG/KG) did it give?
**A.** inactive; negative

**Q.** What about the carcinogen call (Species: MOUSE, Strain/Sex: B6C3F1/MALE, Route: GAVAGE, Dose: 0, 311, 622 MG/KG, Dose: 0, 311, 622 MG/KG) of the same molecule?
**A.** inactive; negative

**Q.** What about the carcinogen call (Species: RAT, Strain/Sex: OSBORNE-MENDEL/FEMALE, Route: GAVAGE, Dose: 0, 120, 240 MG/KG, Dose: 0, 120, 240 MG/KG) of the same molecule?
**A.** inactive; negative

**Q.** And the carcinogen call (Species: RAT, Strain/Sex: OSBORNE-MENDEL/MALE, Route: GAVAGE, Dose: 0, 197, 372 MG/KG, Dose: 0, 197, 372 MG/KG)?
**A.** inactive; negative

**Q.** What does the source list for `O[C@H]1C=Cc2cc3ccc4ccccc4c3nc2[C@@H]1O`?
**A.** carcinogen call (Species: MOUSE, Strain/Sex: SWISS/FEMALE, Route: INTRAPERITONEAL, Dose: 0, 1.05 UMOL GIVEN AS 150 NMOL IN 5 µL DMSO WITHIN 24 HR OF BIRTH, 300 NMOL IN 10 µL DMSO ON D 8 OF LIFE, AND 600 NMOL I, Tumor Site: Type of Lesion: LUNG: ADENOMA): active; positive; carcinogen call (Species: MOUSE, Strain/Sex: SWISS/MALE, Route: INTRAPERITONEAL, Dose: 0, 1.05 UMOL GIVEN AS 150 NMOL IN 5 µL DMSO WITHIN 24 HR OF BIRTH, 300 NMOL IN 10 µL DMSO ON D 8 OF LIFE, AND 600 NMOL I, Tumor Site: Type of Lesion: LUNG: ADENOMA, LIVER: NEOPLASTIC NODULE): active; positive

**Q.** With `O=CN(O)c1ccc(/C=C/c2ccccc2)cc1` as the molecule, how does the carcinogen call (Species: RAT, Strain/Sex: STRAIN-CD/FEMALE, Route: INTRAPERITONEAL, Dose: 0, 10 UMOL/KG BW 2/WK FOR 6 WK (STUDY DURATION: 62 WK), Tumor Site: Type of Lesion: LIVER: NEOPLASTIC NODULE, MAMMARY GLAND: TUMOR) read?
**A.** active; positive

**Q.** And the carcinogen call (Species: RAT, Strain/Sex: STRAIN-CD/MALE, Route: INTRAPERITONEAL, Dose: 0, 10 UMOL/KG BW 2/WK FOR 6 WK (STUDY DURATION: 62 WK), Tumor Site: Type of Lesion: TESTICLE: MESOTHELIOMA, PANCREAS(ACINUS): ADENOMA)?
**A.** active; positive

**Q.** How did the carcinogen call (Species: MOUSE, Strain/Sex: B6C3F1/FEMALE, Route: ORAL, Dose: 0, 500, 1000 PPM IN DIET, Dose: 0, 500, 1000 PPM IN DIET) turn out when `Clc1nc(Cl)nc(Nc2ccccc2Cl)n1` was run?
**A.** inactive; negative

**Q.** What about the carcinogen call (Species: MOUSE, Strain/Sex: B6C3F1/MALE, Route: ORAL, Dose: 0, 500, 1000 PPM IN DIET, Dose: 0, 500, 1000 PPM IN DIET) of the same molecule?
**A.** inactive; negative

**Q.** What about the carcinogen call (Species: Mouse, Strain/Sex: CD-1/Female, Route: Oral, Dose: 0, 50, 250, 1250 ppm in feed for 2 yrs, Dose: 0, 50, 250, 1250 ppm in feed for 2 yrs) of the same molecule?
**A.** inactive; negative; purity 93.5%

**Q.** What about the carcinogen call (Species: Mouse, Strain/Sex: CD-1/Male, Route: Oral, Dose: 0, 50, 250, 1250 ppm in feed for 2 yrs, Dose: 0, 50, 250, 1250 ppm in feed for 2 yrs) of the same molecule?
**A.** inactive; negative; purity 93.5%

**Q.** What about the carcinogen call (Species: RAT, Strain/Sex: F344/FEMALE, Route: ORAL, Dose: 0, 500, 1000 PPM IN DIET, Dose: 0, 500, 1000 PPM IN DIET) of the same molecule?
**A.** inactive; negative

**Q.** What about the carcinogen call (Species: RAT, Strain/Sex: F344/MALE, Route: ORAL, Dose: 0, 500, 1000 PPM IN DIET, Dose: 0, 500, 1000 PPM IN DIET) of the same molecule?
**A.** inactive; negative

**Q.** What about the carcinogen call (Species: Rat, Strain/Sex: Sprague Dawley/Female, Route: Oral, Dose: 0, 50, 330, 2000 ppm in feed for 104 wks, Dose: 0, 50, 330, 2000 ppm in feed for 104 wks) of the same molecule?
**A.** inactive; negative; purity 93.5%

**Q.** And the carcinogen call (Species: Rat, Strain/Sex: Sprague Dawley/Male, Route: Oral, Dose: 0, 50, 330, 2000 ppm in feed for 104 wks, Dose: 0, 50, 330, 2000 ppm in feed for 104 wks)?
**A.** inactive; negative; purity 93.5%

**Q.** Which carcinogen call (Species: MOUSE, Strain/Sex: B6C3F1/FEMALE, Route: ORAL, Dose: 0, 5000, 10000 PPM IN DIET, Dose: 0, 5000, 10000 PPM IN DIET) does the source give for `c1ccc2c(c1)Oc1ccccc1O2` here?
**A.** inactive; negative

**Q.** What about the carcinogen call (Species: MOUSE, Strain/Sex: B6C3F1/MALE, Route: ORAL, Dose: 0, 5000, 10000 PPM IN DIET, Dose: 0, 5000, 10000 PPM IN DIET) of the same molecule?
**A.** inactive; negative

**Q.** And the carcinogen call (Species: RAT, Strain/Sex: OSBORNE-MENDEL/FEMALE, Route: ORAL, Dose: 0, 5000, 10000 PPM IN DIET, Dose: 0, 5000, 10000 PPM IN DIET)?
**A.** inactive; negative

**Q.** And the carcinogen call (Species: RAT, Strain/Sex: OSBORNE-MENDEL/MALE, Route: ORAL, Dose: 0, 5000, 10000 PPM IN DIET, Dose: 0, 5000, 10000 PPM IN DIET)?
**A.** inactive; negative

**Q.** What does the source list for `Nc1c(Cl)c(F)nc(OCC(=O)O)c1Cl`?
**A.** carcinogen call (Species: Mouse, Strain/Sex: CD-1/Female (60/Group), Route: Oral, Dose: 0, 100, 500, 1000 mg/kg/day of 98.9% fluroxypyr in diet for 18 mo, study duration 18 mo, Dose: 0, 100, 500, 1000 mg/kg/day of 98.9% fluroxypyr in diet for 18 mo, study duration 18 mo): inactive; negative; carcinogen call (Species: Mouse, Strain/Sex: CD-1/Male (60/Group), Route: Oral, Dose: 0, 100, 500, 1000 mg/kg/day of 98.9% fluroxypyr in diet for 18 mo, study duration 18 mo, Dose: 0, 100, 500, 1000 mg/kg/day of 98.9% fluroxypyr in diet for 18 mo, study duration 18 mo): inactive; negative; carcinogen call (Species: Rat, Strain/Sex: Fischer 344/Female (50/Group), Route: Oral, Dose: 0, 100, 500, 1000 mg/kg/day of 99.0% fluroxypyr in diet for 2 yr, study duration 2 yr, Dose: 0, 100, 500, 1000 mg/kg/day of 99.0% fluroxypyr in diet for 2 yr, study duration 2 yr): inactive; negative; carcinogen call (Species: Rat, Strain/Sex: Fischer 344/Male (50/Group), Route: Oral, Dose: 0, 100, 500, 1000 mg/kg/day of 99.0% fluroxypyr in diet for 2 yr, study duration 2 yr, Dose: 0, 100, 500, 1000 mg/kg/day of 99.0% fluroxypyr in diet for 2 yr, study duration 2 yr): inactive; negative

**Q.** `c1ccc2c(c1)c1cccc3ccc4cccc2c4c31` was tested. Which carcinogen call (Species: RAT, Strain/Sex: OSBORNE-MENDEL/FEMALE, Route: LUNG IMPLANT, Dose: 0, 0.2, 1.0, 5.0 MG IN BEESWAX/TRIOCTANOIN (STUDY DURATION: LIFETIME), Dose: 0, 0.2, 1.0, 5.0 MG IN BEESWAX/TRIOCTANOIN (STUDY DURATION: LIFETIME)) did it give?
**A.** inactive; negative

**Q.** With `Cc1c2oc3c(C)ccc(C(=O)N[C@@H]4C(=O)N[C@H](C(C)C)C(=O)N5CCC[C@H]5C(=O)N(C)CC(=O)N(C)[C@@H](C(C)C)C(=O)O[C@@H]4C)c3nc-2c(C(=O)N[C@@H]2C(=O)N[C@H](C(C)C)C(=O)N3CCC[C@H]3C(=O)N(C)CC(=O)N(C)[C@@H](C(C)C)C(=O)O[C@@H]2C)c(N)c1=O` (I: T[dV]P[Sar][NMeV] / II: T[dV]P[Sar][NMeV]; ester I:1-I:C, II:1-II:C; linker I:N-II:N via Actinocin(9to1)) as the molecule, how does the carcinogen call (Species: RAT, Route: INTRAPERITONEAL, Tumor Site: Type of Lesion: PERITONEAL CAVITY) read?
**A.** active; positive

**Q.** Which carcinogen call (Species: MOUSE, Strain/Sex: B6C3F1/FEMALE, Route: GAVAGE, Dose: 0, 500, 1000 MG/KG IN CORN OIL 5 D/WK FOR 103 WK (STUDY DURATION: 105 WK), Dose: 0, 500, 1000 MG/KG IN CORN OIL 5 D/WK FOR 103 WK (STUDY DURATION: 105 WK)) does the source give for `C=C(C)[C@H]1CC=C(C)CC1` here?
**A.** inactive; negative

**Q.** And the carcinogen call (Species: MOUSE, Strain/Sex: B6C3F1/MALE, Route: GAVAGE, Dose: 0, 250, 500 MG/KG IN CORN OIL 5 D/WK FOR 103 WK (STUDY DURATION: 105 WK), Dose: 0, 250, 500 MG/KG IN CORN OIL 5 D/WK FOR 103 WK (STUDY DURATION: 105 WK))?
**A.** inactive; negative

**Q.** And the carcinogen call (Species: RAT, Strain/Sex: F344/FEMALE, Route: GAVAGE, Dose: 0, 300, 600 MG/KG IN CORN OIL 5 D/WK FOR 103 WK (STUDY DURATION: 106 WK), Dose: 0, 300, 600 MG/KG IN CORN OIL 5 D/WK FOR 103 WK (STUDY DURATION: 106 WK))?
**A.** inactive; negative

**Q.** And the carcinogen call (Species: RAT, Strain/Sex: F344/MALE, Route: GAVAGE, Dose: 0, 75, 150 MG/KG IN CORN OIL 5 D/WK FOR 103 WK (STUDY DURATION: 106 WK), Dose: 0, 75, 150 MG/KG IN CORN OIL 5 D/WK FOR 103 WK (STUDY DURATION: 106 WK), Tumor Site: Type of Lesion: KIDNEY: TUBULAR CELL ADENOMA, TUBULAR CELL ADENOMA OR ADENOCARCINOMA)?
**A.** active; positive
